In one data set the test system is whole blood. Put plainly: Rotational thromboelastometry (ROTEM) of recalcified citrated whole blood. The data set is classed as cell-based, human. The settings on record: for clotting time (CT) vs saline control / clot formation time (CFT) vs saline control: 1 mM; for clotting time (CT) vs saline control: FIG. 8A; for clot formation time (CFT) vs saline control: FIG. 8B; for clotting time (CT) as % of the physiological CT: whole blood. An excerpt:
ROTEM (TEM Innovation, Germany) was applied to monitor the interactions of platelet-activating polymers and whole blood over time. ROTEM system contains an oscillating sensor pin that is immersed in a temperature-controlled cuvette containing the blood sample. Four measurements can be performed in parallel in the same device. Generally, coagulation of the citrated blood sample is initiated by re-calcification. The formation kinetics of a fibrin clot could be monitored mechanically and calculated by an integrated computer to the typical curves and numerical parameters.
Blood was collected from three un-medicated and healthy donors using minimal stasis from an antecubital vein through a 21-gauge needle. After discarding the first 3 ml, blood was collected in 3.5 ml tubes (Vacuette; Greiner Bio-One) containing 0.3 ml buffered 3.2% sodium citrate. The samples were kept on a pre-warming stage at 37° C. for at least 10 min prior to analysis and were processed within 3 h. ROTEM analysis of the whole blood sample was initiated by recalcification with the addition of 20 μl of CaCl2 (star-TEM®, 200 mM). Polymer solutions and/or polymer suspensions were added directly to the cuvette immediately after recalcification of the citrated blood and mixed by gently pipetting up and down as previously reported.^[21] The final reaction volume per ROTEM cuvette was 370 μl, consisting of 300 μl citrated whole blood, 20 μl CaCl2 and 50 μl polymer solution or polymer suspension.
We next studied the hemostatic efficacy of PVA-TRAP6 in comparison with TRAP6 and PVA-NB using rotational thromboelastometry (ROTEM),^[21, 22] which is a clinical diagnostic tool allowing in situ characterization of viscoelastic properties of blood clot during coagulation. […] Clotting time (CT) refers to the latency until the clot reaches a firmness of 2 mm while maximum clot firmness (MCF) refers to the maximum amplitude of the curve, which indicates the absolute strength of the clot.

In data set [1] the test system is platelets. Put plainly: FACS analysis of platelet activation (CD41/CD62p co-expression). The data set is classed as cell-based, human. The protocol: The blood of two unmedicated and healthy donors was collected and stabilized by sodium citrate. […] Twenty microliter of TRAP6-C solution (14 mg mL^−1) and/or 20 μL of NaCl solution (0.9%) were added as the positive control and the negative control, respectively. The incubated mixture was mixed with 300 μL of 1% paraformaldehyde for 15 min at room temperature. After washing and centrifugation a double immuno-staining was performed using 20 μL of phycoerythrin (PE) labeled monoclonal antibody directed against CD41 and 20 μL of allophycocyanin (APC) labeled monoclonal antibody directed against CD62P. Isotype controls were incubated with mouse IgG antibodies conjugated with APC or PE dye, respectively (all antibodies were purchased from BD Biosciences, Heidelberg, Germany). After 30 min incubation at room temperature the activation state of the platelets was determined using fluorescence flow cytometry. Expression of the platelet activation marker CD62P and the constitutively present platelet marker CD41 were detected using a Beckmann Coulter Cytomics FC-500 equipped with Uniphase Argon ion laser, 488 nm, 20 mW output. Overall 100 000 platelets were measured per sample and analyzed with the Cytomics CXP software. The experiment was repeated twice.
We next utilized flow cytometry (FACS) to quantify the extent of platelet activation. Platelets can be distinguished from other blood cells by the constitutive expression of the surface antigen CD41, which recognizes the platelet membrane glycoprotein GpIIb which is non-covalently associated with GpIIIa (the integrin beta 3 chain) to form the GpIIb/IIIa complex. Importantly, the CD62p (P-selectin) membrane glycoprotein is exclusively expressed on activated platelets. The CD62p marker was used to identify the extent of activation in human platelets after incubation with the studied materials (PVA-TRAP6, TRAP6, PVA-NB, and NaCl).

For data set [2], the system named is platelets. Put plainly: Multiplate platelet aggregation assay in hirudinized whole blood. Format: cell-based, human. To be noted: for aggregation area: 0.1 mM TRAP6 equivalent, 6 min measurement. The protocol:
The principle of Multiplate test is based on the fact that platelets become sticky upon activation, and thus prone to adhere and aggregate on the metal sensor wires in the Multiplate test cuvette. The sensor wires are made of highly conductive copper, which is silver-coated. As activated platelets adhere and aggregate on the sensor wires, the electrical resistance between the wires rises, which can be monitored in real time. For each measurement, 300 μL of saline and 300 μL of hirudinized whole blood was added sequentially to a Multiplate cuvette. After 3 min incubation at 37° C., 20 μL of sample solution was added and at the same time the program started to collect signals. The Multiplate device allows 4 measurements in parallel. Each measurement was performed for 6 min and in duplicate.
In order to quantify the extent of platelet activation, we utilized Multiplate assay to investigate the influence of PVA-TRAP6, TRAP6 and PVA-NB on platelet aggregation. The principle of this method is based on the fact that platelets become sticky upon activation, and thus prone to adhere and aggregate on the metal sensor wires in the Multiplate test cuvette. As activated platelets adhere and aggregate on the sensor wires, the electrical resistance between the wires rises, which can be continuously monitored. […] One key parameter of Multiplate assay is aggregation area (in Units), i.e. the area underneath the aggregation curve.

Data set [3] deals with platelets. To be noted: from reference [12]; cited from earlier work.

No end group written: not given here. PVA‑NB hydrogel particulates = not defined here

Data on four substances can be found in US20180243465A1, “HEMOSTATIC MATERIAL” (BAXTER INTERNATIONAL INC., priority 2015, published 2018).

Description for C2C12 myoblasts: Cytotoxicities of PVA, PVA-NB and PVA-TRAP6 macromer solutions were evaluated via MTT assay. C2C12 cells were cultured in Dulbecco's Modified Eagles Medium (DMEM) supplemented with 5% fetal calf serum (FCS), 1% L-Glutamine, 1% Penicillin/Streptomycin (all from Sigma-Aldrich, Austria). Macromer solutions with three concentrations (5%, 1% and 0.1%) were prepared in DMEM culture medium. C2C12 cells were then seeded in a 96-well plate at a density of 5×10^3 cells per well in 200 μL of culture medium. After 24 h incubation (37° C., 5% CO2), 100 μL of the respective macromer solutions were added to the cells in triplicates. After 24 h incubation, cells were washed twice with sterile PBS before the addition of 100 μL thiazolyl blue tetrazolium bromide (MTT) working solution (5 mg/mL in PBS). After 1 h incubation, the liquid was discarded and 100 μl of DMSO was added to dissolve the formazan crystals. Finally, the absorbance was measured at 540 nm using a microplate reader.

In the case of “PEG-TRAP6: PEG-10k-NHS reacted with the N-terminus of TRAP6, unreacted NHS groups blocked with glycine ({PEG 10 kDa}-SFLLRNPNC; also: unreacted NHS groups of PEG blocked with glycine) [reference compound]”, in the data set with whole blood, the “clotting time (CT) vs saline control” value was “this effect was lost” and the “clot formation time (CFT) vs saline control” value is recorded as “this effect was lost”.
Turning to “PVA-TRAP6-P: insoluble crosslinked PVA-NB hydrogel particulates surface-functionalized with TRAP6-Cys peptide (SFLLRNPNC(PVA‑NB hydrogel particulates); reading uncertain)”, the “clotting time (CT) as % of the physiological CT” value with whole blood (particulate suspension 10 wt % in saline) was ~50%. Further, the “platelet activation vs soluble TRAP6 control (FACS)” value in the data set with platelets [1] (particulates) is listed as “comparable extent as soluble TRAP6 control”. Further, in the data set with platelets [1] (particulates, 15 min incubation, whole blood), the “percentage of activated platelets (CD41+/CD62p+)” value is given as ~55%.
As for “PVA-TRAP6: water-soluble conjugate of cysteine-containing TRAP6 peptide (SFLLRNPNC) on PVA-norbornene backbone by thiol-ene photo-click conjugation (SFLLRNPNC(PVA‑norbornene 22 kDa))”, the “clotting time (CT)” value with whole blood (0.1 mM TRAP6 equivalent, compared with TRAP6 0.1 mM) is “very comparable to that of TRAP6”. Also, the “maximum clot firmness (MCF)” value in the data set with whole blood (0.1 mM, compared with TRAP6 control) was “relatively less than that of TRAP6 control”. For the same substance, in the data set with whole blood, the “clotting time (CT) vs saline control” value was “significantly shorten” and the “clot formation time (CFT) vs saline control” value was “significantly shorten”. Moreover, the “clotting time (CT) as % of the physiological CT” value in the data set on whole blood (0.1% PVA-TRAP6 solution) was ~45%. The optimal hemostatic concentration in the data set on whole blood (peptide concentrations tested 0.01, 0.1, 1 mM, CT) was determined as 0.1 mM. For the same substance, the “platelet activation (CD41/CD62P co-expression)” value in the data set with platelets [1] (1 mM, FIG. 9B) is listed as “very similar level as TRAP6 control”. Also, the “CD41/CD62p co-expression (CD62p expression in CD41 positive cells)” value in the data set with platelets [1] (15 min incubation, 0.1 mM, soluble system) is on record as ~80%. Also, the platelet aggregation curve entry in the data set on platelets [2] (0.1 mM) is reported as “comparable to that of TRAP6”. The aggregation area in the data set on platelets [2] came to 130 U. Further, in the data set with platelets [2] (1 mM, FIG. 9A), the “total platelet aggregation area” value is listed as “comparable to that of TRAP6”. In addition, the “cytotoxicity (MTT assay)” value in the data set on C2C12 myoblasts is on record as “nontoxic”.
On to SFLLRN [TRAP6, reference compound], for which the “effective TRAP6-concentration for platelet activation” value in the data set on platelets [3] is 5 to 100 µM. Further, in the data set with whole blood, the “clotting time (CT) vs saline control” value was “significant decrease” and the “clot formation time (CFT) vs saline control” value is “significant decrease”. For the same substance, the “dose influence on CT” value in the data set with whole blood (peptide concentrations 0.01, 0.1, 1 mM) is reported as “no significant dose influences”. Also, the aggregation area with platelets [2] is listed as 147 U.
